According to patent US7354579B2, “Method of treating cancer with a VEGF antagonist and an anti-proliferative agent” (Regeneron Pharmaceuticals, Inc., priority 2003, dated 2008):

Test system: OVCAR3 cells
Experiment: OVCAR3 i.p. tumor model in athymic nude mice: tumor burden and ascites after 4 weeks of treatment
Type: in vivo
Conditions: for % Reduction Ascites / % Reduction Tumor Burden: compared to controls; for % Reduction Ascites: ascites volume at end of 4 weeks of treatment; for % Reduction Tumor Burden: treatment for 4 weeks starting 2 weeks after i.p. inoculation, VEGF-Trap s.c. twice weekly, paclitaxel i.p. 3 times weekly; for Mice with tumors in the hilus of the liver / Mice with tumors on the diaphragm: end of experiment; for Ascites formation (in words): end of 4 weeks of treatment
Method: Experimental Design. Two experiments, each with 4 groups of female athymic nude mice (5-7 wks, 20 mice/experiment, total n=40) were inoculated i.p. with OVCAR3 cells. Two weeks after inoculation, 1 group was treated with VEGF-Trap s.c. twice weekly+paclitaxel i.p. 3 times weekly for 4 weeks. The second group was treated with VEGF-Trap alone. The third group was treated with paclitaxel alone. The remaining group was treated with vehicle. At the end of the experiments, the mice were euthanized, the volume of ascites was measured and all visible tumor was excised and weighed.

Compound	% Reduction Ascites	% Reduction Ascites (listed as Paclitaxel)	% Reduction Tumor Burden	% Reduction Tumor Burden (listed as paclitaxel)	Mice with tumors in the hilus of the liver	Mice with tumors on the diaphragm	% Reduction Tumor Burden (listed as VEGF-Trap)	Ascites formation (in words) (listed as VEGF trap)	Ascites formation (in words) (listed as VEGF-Trap)
CC(=O)O[C@H]1C(=O)[C@@]2(C)[C@H]([C@H](OC(=O)c3ccccc3)[C@]3(O)C[C@H](OC(=O)[C@H](O)[C@@H](NC(=O)c4ccccc4)c4ccccc4)C(C)=C1C3(C)C)[C@]1(OC(C)=O)CO[C@@H]1C[C@@H]2O [Taxol ™, paclitaxel, reference compound]	85.4%	85.5%	55.9%	54.8%	60%	80%			
VEGF Trap: VEGF-receptor based trap antagonist VEGFR1R2-FcΔC1(a) (SEQ ID NOs: 1-2), capable of high affinity binding of VEGF	96.5%		56.7%		60%	Ninety	55.7%	no demonstrable ascites	Virtually no ascites developed
